IC50 data for 46 compounds are collected here from patent US8299070B2, “Indole compounds and pharmaceutical use thereof” (Japan Tobacco Inc., priority 2009, dated 2012).

The assay addresses T1, hITK enzyme (FLAG-tagged full-length hITK) (Homo sapiens, UniProt Q08881).
T1 construct: strongly expressing FLAG-tagged full-length hITK in Sf9 cells; FLAG; made in house; host or cells: Sf9 insect cells (ITK); Escherichia coli (GST-SLP76 substrate)
T1 sequence (Q08881 1-620): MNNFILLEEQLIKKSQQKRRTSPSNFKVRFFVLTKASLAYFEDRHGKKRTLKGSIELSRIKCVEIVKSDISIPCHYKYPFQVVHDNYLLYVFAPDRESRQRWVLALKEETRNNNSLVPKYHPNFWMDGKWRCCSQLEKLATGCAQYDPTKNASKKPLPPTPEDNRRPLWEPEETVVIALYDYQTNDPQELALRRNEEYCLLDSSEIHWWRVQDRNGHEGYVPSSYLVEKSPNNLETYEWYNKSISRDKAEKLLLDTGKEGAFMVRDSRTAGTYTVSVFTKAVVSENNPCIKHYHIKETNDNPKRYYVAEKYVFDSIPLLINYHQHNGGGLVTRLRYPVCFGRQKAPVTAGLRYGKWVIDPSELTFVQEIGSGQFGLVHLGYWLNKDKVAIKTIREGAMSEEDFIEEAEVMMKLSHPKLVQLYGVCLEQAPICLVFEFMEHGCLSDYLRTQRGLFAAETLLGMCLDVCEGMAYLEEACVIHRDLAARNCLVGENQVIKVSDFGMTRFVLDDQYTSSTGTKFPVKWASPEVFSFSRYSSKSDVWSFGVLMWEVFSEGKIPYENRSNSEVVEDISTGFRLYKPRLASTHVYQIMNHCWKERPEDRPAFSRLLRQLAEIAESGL
Briefly: ITK inhibitory activity (HTRF kinase assay, biotinylated GST-SLP76 substrate). Type of assay: biochemical. The settings on record: IC50 calculated from the 2 test compound concentrations sandwiching 50% ITK inhibitory rate. As to the method: (1) Preparation of hITK Enzyme
hITK enzyme was prepared by strongly expressing FLAG-tagged full-length hITK in Sf9 cells, and purifying same by anti-FLAG antibody column.
(2) Preparation of biotinylated GST-SLP76
Biotinylated GST-SLP76 was prepared by strongly expressing GST-tagged SLP76 (aa95-175) in Escherichia coli, purifying same by glutathion sepharose column and biotinylating same.
(3) Preparation of Solution
(i) buffer for dilution: 20 mmol/L 3-(N-morpholino)propanesulfonic acid (pH 7.0) (DOJINDO LABORATORIES), 10 mmol/L magnesium chloride (Sigma-Aldrich Corporation), 1 mmol/L dithiothreitol (Nacalai Tesque, Inc.), 0.1% gelatin (Sigma-Aldrich Corporation)
(ii) substrate solution: 0.2 μg/mL biotinylated GST-SLP76, 100 μmol/L ATP (Sigma-Aldrich Corporation), prepared with buffer for dilution
(iii) test compound solution: test compound, 50% dimethyl sulfoxide (DMSO), prepared with buffer for dilution
(iv) enzyme solution: 50 ng/mL hITK enzyme, prepared with buffer for dilution
(v) control solution: solution after removal of test compound from the mixture of the above-mentioned (i), (ii) and (iii)
(vi) blank solution: solution after removal of ATP from the mixture of the above-mentioned (i), (ii) and (iii)
(vii) detection buffer: 0.1 μg/mL Anti-Phosphotyrosine (PT66)-Cryptate (Cisbio), 2.5 μg/mL streptavidin-binding XL665 (Cisbio), 50 mmol/L 4-(2-hydroxyethyl)-1-piperazineethanesulfonic acid (pH 7.4) (Nacalai Tesque, Inc.), 30 mmol/L EDTA (NipponGene), 0.1% TritonX (Sigma-Aldrich Corporation), 200 mmol/L potassium fluoride (Wako Pure Chemical Industries, Ltd.), 0.05% bovine serum albumin (Sigma-Aldrich Corporation) (4) Measurement of ITK Inhibitory Activity
A substrate solution (25 μL/well), a test compound solution (5 μL/well) and an enzyme solution (20 μL/well) were added into 96 well half-area white plate (plate, Corning Incorporated 3642) to start a kinase reaction. The plate was stood still at room temperature for 10 min. Then, a detection buffer (50 μL/well) was added to the plate. After 2 hr from the addition of the detection buffer, fluorescence intensity at 620 nm (excited at 337 nm), and fluorescence intensity at 665 nm ([…]) were measured by a fluorescence microplate reader.
The Ratio (fluorescence intensity at 665 nm/fluorescence intensity at 620 nm×10000) of each test compound was calculated from the measured fluorescence intensity. Simultaneously, the measurement was performed using a blank solution and a control solution, and % of control value of each test compound was calculated from the following formula. % of control=(Ratio of test compound−Ratio of blank)/(Ratio of control−Ratio of blank)×100 ITK inhibitory rate (%)=100−(% of control)
The IC50 value was calculated from the test compound concentrations at 2 points sandwiching 50% ITK inhibitory rate.
In the test for the compounds of Examples 380 and 381, the ATP concentration of the substrate solutions was 6 μmol/L.
Regarding `CN(C(=O)C(C)(C)O)c1ccc2cc(-c3n[nH]c4c3CCC(C)(C)C4)[nH]c2c1` [Example 37], the half-maximal inhibitory concentration (IC50) is 8 nM.
On to `CN(C(=O)OC1CCCCC1)c1ccc2cc(-c3n[nH]c4c3CCC(C)(C)C4)[nH]c2c1` [Example 102], for which the IC50 was 117 nM.
For `CC1(C)CCc2c(-c3cc4ccc(N5CCC(CO)C5=O)cc4[nH]3)n[nH]c2C1` (stereo not shown) [Example 228], the IC50 is 40 nM.
The value for `COC(C)(C)C(=O)N(C)c1ccc2cc(-c3n[nH]c4c3CCC(C)(C)C4)[nH]c2c1` [Example 42] was 22 nM.
As for `CN(C(=O)CCN1CCCC1=O)c1ccc2cc(-c3n[nH]c4c3CCC(C)(C)C4)[nH]c2c1` [Example 144], the figure is 9 nM; as for `CCC(=O)N(CCO)c1ccc2cc(-c3n[nH]c4c3CCC(C)(C)C4)[nH]c2c1` [Example 209], 4 nM.
As for `CC(C(=O)N(C)c1ccc2cc(-c3n[nH]c4c3CCC(C)(C)C4)[nH]c2c1)N1CCOC(O)C1` (stereo not shown) [Example 378], the figure is 2 nM; as for `CC(C)OCC(=O)N(C)c1ccc2cc(-c3n[nH]c4c3CCCC4)[nH]c2c1` [Example 359], 21 nM; as for `CCC(=O)N(C)c1ccc2cc(-c3n[nH]c4c3CC(O)C(C)(C)C4)[nH]c2c1` (stereo not shown) [Example 373], 8 nM.
As for `CN(C(=O)c1ccc2cc(-c3n[nH]c4c3CCC(C)(C)C4)[nH]c2c1)c1ccccc1` [Example 10], the concentration for half-maximal inhibition (IC50) is 45 nM.
The value for `C[C@@H](C(=O)N(C)c1ccc2cc(-c3n[nH]c4c3CCC(C)(C)C4)[nH]c2c1)N(C)C(=O)C1CC1` [Example 205] was 27 nM.
The value for `C[C@@H](C(=O)N(C)c1ccc2cc(-c3n[nH]c4c3CCC(C)(C)C4)[nH]c2c1)N1CCOCC1` [Example 4, (S)—N-[2-(6,6-dimethyl-4,5,6,7-tetrahydro-1H-indazol-3-yl)-1H-indol-6-yl]-N-methyl-2-(morpholin-4-yl)propionamide] was 2 nM.
The value for `CN(C(=O)[C@H]1CCC(=O)N1C)c1ccc2cc(-c3n[nH]c4c3CCC(C)(C)C4)[nH]c2c1` [Example 150] was 2 nM; that for `CO[C@H](C)C(=O)N(C)c1ccc2cc(-c3n[nH]c4c3CCC(C)(C)C4)[nH]c2c1` [Example 168] was 3 nM; that for `CC1(C)CCc2c(-c3cc4ccc(N(CCO)C(=O)CC5CCCOC5)cc4[nH]3)n[nH]c2C1` (stereo not shown) [Example 232] was 3 nM.
Take `COCCN(C(=O)CC1CCOCC1)c1ccc2cc(-c3n[nH]c4c3CCC(C)(C)C4)[nH]c2c1` [Example 269]: the half-inhibitory concentration (IC50) was 6 nM.
Take `CC1(C)CCc2c(-c3cc4cc(C(=O)NCc5ccccc5)ccc4[nH]3)n[nH]c2C1` [Example 315]: the IC50 is 60 nM.
The value for `CC(NC(=O)c1ccc2[nH]c(-c3n[nH]c4c3CCC(C)(C)C4)cc2c1)C(C)(C)C` (stereo not shown) [Example 299] was 74 nM; that for `COCCN(C(=O)CN1CCOCC1=O)c1ccc2cc(-c3n[nH]c4c3CCC(C)(C)C4)[nH]c2c1` [Example 286] was 2 nM.
Take `CN(C(=O)CN1CCNC1=O)c1ccc2cc(-c3n[nH]c4c3CCC(C)(C)C4)[nH]c2c1` [Example 185]: the IC50 was 2 nM.
As for `CN(C(=O)CN1CCC(O)CC1)c1ccc2cc(-c3n[nH]c4c3CCC(C)(C)C4)[nH]c2c1` [Example 107], the concentration for half-maximal inhibition (IC50) is 10 nM.
With `CCN(C(=O)CN1CCCCCC1=O)c1ccc2cc(-c3n[nH]c4c3CCC(C)(C)C4)[nH]c2c1` [Example 270], the 50% inhibitory concentration (IC50) is 2 nM.
As for `CC1(C)CCc2c(-c3cc4cc(C(=O)NC(C)(C)CO)ccc4[nH]3)n[nH]c2C1` [Example 320], the IC50 was 49 nM.
As for `COC[C@@H]1CCC(=O)N1CC(=O)N(C)c1ccc2cc(-c3n[nH]c4c3CCC(C)(C)C4)[nH]c2c1` [Example 197], the IC50 was 2 nM.
As for `CN(C(=O)[C@@H](O)C1CCCCC1)c1ccc2cc(-c3n[nH]c4c3CCC(C)(C)C4)[nH]c2c1` [Example 78], the figure is 7 nM; as for `CCN(C(=O)CC(C)(C)O)c1ccc2cc(-c3n[nH]c4c3CCC(C)(C)C4)[nH]c2c1` [Example 290], 8 nM.
For the compound `CCN(C(=O)CN1CCOCC1=O)c1ccc2cc(-c3n[nH]c4c3CCC(C)(C)C4)[nH]c2c1` [Example 288], the IC50 was 1 nM.
As for `CO[C@@H]1CCCN(CC(=O)N(C)c2ccc3cc(-c4n[nH]c5c4CCC(C)(C)C5)[nH]c3c2)C1` [Example 115], the figure is 4 nM; as for `C[C@@H](C(=O)N(CCO)c1ccc2cc(-c3n[nH]c4c3CCC(C)(C)C4)[nH]c2c1)N1CCOCC1` [Example 255], 3 nM; as for `CCOCC(=O)N(C)c1ccc2cc(-c3n[nH]c4c3CCC(C)(C)C4)[nH]c2c1` [Example 44], less than 3 nM.
As for `CCCOCC(=O)N(C)c1ccc2cc(-c3n[nH]c4c3CCC(C)(C)C4)[nH]c2c1` [Example 55], the figure is less than 3 nM; as for `CN(C(=O)C1CCOC1)c1ccc2cc(-c3n[nH]c4c3CCC(C)(C)C4)[nH]c2c1` (stereo not shown) [Example 66], 3 nM.
With `CC1(C)CCc2c(-c3cc4ccc(N5CCC(O)C5=O)cc4[nH]3)n[nH]c2C1` (stereo not shown) [Example 227], the IC50 was 34 nM.
As for `COC(C)C(=O)N(C)c1ccc2cc(-c3n[nH]c4c3CCC(C)(C)C4)[nH]c2c1` (stereo not shown) [Example 41], the figure is 4 nM; as for `CC1CCCC(=O)N1CC(=O)N(C)c1ccc2cc(-c3n[nH]c4c3CCC(C)(C)C4)[nH]c2c1` (stereo not shown) [Example 137], 2 nM.
With `CN(C(=O)COc1cccnc1)c1ccc2cc(-c3n[nH]c4c3CCC(C)(C)C4)[nH]c2c1` [Example 86], the IC50 was less than 3 nM.
Take `COC(CO)C(=O)N(C)c1ccc2cc(-c3n[nH]c4c3CCC(C)(C)C4)[nH]c2c1` (stereo not shown) [Example 48]: the IC50 is 6 nM.
With `COC[C@H]1CCC(=O)N1CC(=O)N(C)c1ccc2cc(-c3n[nH]c4c3CCC(C)(C)C4)[nH]c2c1` [Example 196], the IC50 was 4 nM.
As to `CCN(C(=O)CO)c1ccc2cc(-c3n[nH]c4c3CCC(C)(C)C4)[nH]c2c1` [Example 206], the IC50 is 5 nM.
Consider `CN(C(=O)CN1CCC[C@@H](O)C1)c1ccc2cc(-c3n[nH]c4c3CCC(C)(C)C4)[nH]c2c1` [Example 110], for which the IC50 was 7 nM.
With `CN(C(=O)c1ccccc1)c1ccc2[nH]c(-c3n[nH]c4c3CCC(C)(C)C4)cc2c1` [Example 339], the IC50 was 842 nM.
In the case of `CC(C(=O)N(C)c1ccc2cc(-c3n[nH]c4c3CCC(C)(C)C4)[nH]c2c1)N1CCCC1=O` (stereo not shown) [Example 134], the IC50 is 8 nM.
On to `CN(C(=O)C1CCCO1)c1ccc2cc(-c3n[nH]c4c3CCC(C)(C)C4)[nH]c2c1` (stereo not shown) [Example 52], for which the IC50 is less than 3 nM.
As for `CCC(=O)N(C)c1ccc2cc(-c3n[nH]c4c3CC(OCc3ccccc3)C(C)(C)C4)[nH]c2c1` (stereo not shown) [Example 364], the figure is 45 nM.
The value for `CN(C(=O)COC1CCOC1)c1ccc2cc(-c3n[nH]c4c3CCC(C)(C)C4)[nH]c2c1` (stereo not shown) [Example 87] was less than 3 nM; that for `CN(C(=O)CN1CC(C)(C)OCC1=O)c1ccc2cc(-c3n[nH]c4c3CCC(C)(C)C4)[nH]c2c1` [Example 184] was 1 nM.
